Patent US8507506B2, “Theophylline derivative inhibits osteoporosis” (Kaohsiung Medical University, priority 2011, dated 2013)
Marks after values point to notes of the source that are not given here.

Experiments:
[1] = test system: RAW264.7 cells; assay: MTT assay, proliferation induced by RANKL; format: cell-based; conditions: RAW264.7, 5 μM, 7.5 μM, 10 μM, FIG. 1
Method: Cells were plated onto 96-well plates at a density of 10^3 cells per well. After 24 hours incubation, the different concentrations of the different drugs were administrated into the plates. […] Subsequently, the medium was removed, and 100 μl/well isopropanol was added to solved formazan. The plates were shaken for 15 minutes and stood for 15 minutes, and then the absorbance was measured at wavelength of 540 nm and 630 nm. The ratio of the absorbance of treated cells relative to that of the control cells was calculated and expressed as a percentage of cell survival.

[2] = test system: Fra-1 mRNA in RAW264.7 cells; assay: RT-PCR, RANKL-induced mRNA expression of Fra-1; format: cell-based; conditions: for RANKL-induced mRNA expression level of Fra-1: RAW264.7 cells, 24 hours, CTL 100%, mean ± SEM
Description: (§1) The culture medium was discarded. […] [table] f) Running • A.

[3] = test system: IL-10 secretion by RAW264.7 cells; assay: ELISA, amount of IL-10; format: cell-based; conditions: RAW264.7, ELISA, increasing dose, FIG. 7(B)
Method: Under RANKL stimulation, mononuclear RAW264.7 cells can secrete pro-inflammatory cytokines such as TNF-α, IL-1, IL-6, etc. ELISA is used to measure that KMUP-1 influences RANKL to induce the secretion of pro-inflammatory cytokines. […] 10^5 cells were plated per well in 24-well plates. […] After 24 hours reaction, the reaction fluid was centrifuged (13,000 rpm, 4° C., 20 minutes), and then the supernatant was tasted by ELISA kit (R&D system and eBioscience™) to detect the amount of TNF-α, IL-1β, IL-6, and IL-10. The experimental process is followed with the instructions of the kit.

[4] = test system: c-Fos protein in RAW264.7 cells; assay: Western blot, expression of c-Fos induced by RANKL; format: cell-based; conditions: 7.5 μM and 10 μM, RANKL 24 hours, FIG. 12
Method: The proteins were collected by scraping and were centrifuged (13,000 rpm, 4° C., 30 minutes). The supernatant was stored in an eppendorf in −80° C. • c) Concentrations of the proteins were examined by Bio-Red DC Protein Assay. After knowing the concentrations, the proteins were diluted to specific concentrations by adding ddH2O. One forth volume of the diluted proteins of sample buffer was added into the diluted proteins and was put in boiled water for 5 min and then was chilled on ice for 5 minutes. After short time centrifugation, the diluted proteins could be injected into wells of a gel. The gel was run at 100 V for 10 minutes until the proteins were driven to the intersection between a loading gel and a running gel. Then, the voltage was swopped to 200 V for 40 minutes. • d) A PVDF membrane was immersed in Methanol for 2 minutes. After two washes in ddH2O, the membrane was immersed in transfer buffer for 15 minutes. A SDS-PAGE was put on the membrane, and wet paper was flanked them. The proteins were transferred to the PVDF membrane using a semi-dry transfer at 20 V for 30 minutes. • e) The band of the PVDF membrane was trimmed and was added by suitable amount of blocking buffer (5% skim milk in washing buffer) and then was shaken for 1 hour in room temperature to block non specific bindings. Then, the band was covered by a diluted 1° antibody overnight in 4° C. […]

[5] = test system: MIA-induced knee arthritis in Wistar male rats; assay: Monosodium iodoacetate (MIA) induced knee arthritis rat model; format: in vivo
[6] = test system: osteoclast-like cells, OCL; assay: Intracellular calcium (fura-2/AM), RANKL-induced calcium influx; format: cell-based; conditions: 1 μM and 10 μM, FIGS. 14 and 15
[7] = test system: TRAP mRNA in RAW264.7 cells; assay: RT-PCR, RANKL-induced mRNA expression of TRAP; format: cell-based; conditions: for RANKL-induced mRNA expression level of TRAP: RAW264.7 cells, 24 hours, CTL 100%, mean ± SEM
Description: as §1

[8] = test system: MMP-2 protein in RAW264.7 cells; assay: Western blot, amount of MMP-2 protein induced by RANKL; format: cell-based; conditions: RANKL 24 hours, FIG. 18
Method: KMUP-1 influences there major up-stream signal transduction pathways which are related to RANK/RANKL. Western blot is used to estimate the amount of matrix metalloproteinase (MMP)-2 and MMP-9 which are related to the dissolution of osteoclast-like cells, and the enzyme activity of MMP-2 and MMP-9 are estimated via Gelatin Zymography. […] The proteins were collected by scraping and were centrifuged (13,000 rpm, 4° C., 30 minutes). The supernatant was stored in an eppendorf in −80° C. • c) Concentrations of the proteins were examined by Bio-Red DC Protein Assay. After knowing the concentrations, the proteins were diluted to specific concentrations by adding ddH2O. One forth volume of the diluted proteins of sample buffer was added into the diluted proteins and was put in boiled water for 5 min and then was chilled on ice for 5 minutes. After short time centrifugation, the diluted proteins could be injected into wells of a gel. The gel was run at 100 V for 10 minutes until the proteins were driven to the intersection between a loading gel and a running gel. Then, the voltage was swopped to 200 V for 40 minutes. • d) A PVDF membrane was immersed in Methanol for 2 minutes. After two washes in ddH2O, the membrane was immersed in transfer buffer for 15 minutes. A SDS-PAGE was put on the membrane, and wet paper was flanked them. […]

[9] = 10 ng/ml RANKL, summary of Table 1

Cn1c(=O)c2c(ncn2CCN2CCN(c3ccccc3Cl)CC2)n(C)c1=O [KMUP-1, 7-[2-[4-(2-Chlorophenyl)piperazin-1-yl]ethyl] theophylline]
cell proliferation induced by RANKL (MTT assay) [1]: can inhibit the cell proliferation induced by RANKL | effect on mRNA expression of Fra-1 induced by RANKL (in words) [2, 9]: inhibits the mRNA expression | RANKL-induced mRNA expression level of Fra-1 ([2]; RANKL 10 ng/ml + KMUP-1 1 μM): 244.1 ± 38.9% ^b | RANKL-induced mRNA expression level of Fra-1 ([2]; RANKL 10 ng/ml + KMUP-1 2.5 μM): 285.1 ± 44.8% ^b | RANKL-induced mRNA expression level of Fra-1 ([2]; RANKL 10 ng/ml + KMUP-1 5 μM): 310.1 ± 56.3% ^b | RANKL-induced mRNA expression level of Fra-1 ([2]; RANKL 10 ng/ml + KMUP-1 7.5 μM): 238.7 ± 49.9% ^b | RANKL-induced mRNA expression level of Fra-1 ([2]; RANKL 10 ng/ml + KMUP-1 10 μM): 265.2 ± 64.1% ^b | amount of anti-inflammatory cytokine IL-10 [3]: can raise the amount of anti-inflammatory cytokines, IL-10 | expression of c-Fos induced by RANKL [4]: can efficiently inhibit it | holes and defects of cartilage tissues (H&E slices) ([5]; oral 1 mg/kg): the holes and defects from the damages of the MIA still exist | inflammatory cell infiltrations (H&E slices) ([5]; oral 1 mg/kg): there are still many inflammatory cell infiltrations | holes and defects of cartilage tissues (H&E slices) ([5]; oral 2.5 mg/kg): become much better | inflammatory cell infiltrations (H&E slices) ([5]; oral 2.5 mg/kg): the inflammatory cell infiltrations become less | damages of articular cartilage caused by MIA (gross appearance) ([5]; oral 2.5 mg/kg and 5 mg/kg, one week before and one week after MIA): can reduce the damages caused by the MIA | holes and defects of cartilage tissues (H&E slices) ([5]; oral 5 mg/kg): close to the recovery condition of the sham group | inflammatory cell infiltrations (H&E slices) ([5]; oral 5 mg/kg): there are still some inflammatory cell infiltrations | mast cell infiltrations (toluidine blue slices) ([5]; oral 1, 2.5, 5 mg/kg): the mast cell infiltrations present a trend of reducing according to the higher dose | RANKL-induced extracellular calcium influx [6]: can inhibit it | effect on mRNA expression of TRAP induced by RANKL (in words) [7, 9]: inhibits the mRNA expression | RANKL-induced mRNA expression level of TRAP ([7]; RANKL 10 ng/ml + KMUP-1 1 μM): 422.4 ± 24.8% | RANKL-induced mRNA expression level of TRAP ([7]; RANKL 10 ng/ml + KMUP-1 2.5 μM): 427.7 ± 39.3% | RANKL-induced mRNA expression level of TRAP ([7]; RANKL 10 ng/ml + KMUP-1 5 μM): 359.9 ± 20.7% ^b | RANKL-induced mRNA expression level of TRAP ([7]; RANKL 10 ng/ml + KMUP-1 7.5 μM): 293.8 ± 30.1% ^b | RANKL-induced mRNA expression level of TRAP ([7]; RANKL 10 ng/ml + KMUP-1 10 μM): 259.3 ± 18.3% ^b | amount of MMP-2 protein induced by RANKL [8]: can efficiently inhibit the amount of MMP-2 and MMP-9 proteins
